Earlier results on one molecule are cited in patent US6444469B1, “Methods for altering the rate of plant development and plants obtained therefrom” (Yale University, priority 1996, dated 2002).

This series has as its system late-flowering strains and mutants of Arabidopsis. The settings on record: treatment of seeds; some late-flowering strains and mutants.

For the molecule `Nc1ncn([C@@H]2O[C@H](CO)[C@@H](O)[C@H]2O)c(=O)n1` [Line 5-AzaC, 5-azacytidine], the Effect on flowering entry was “early flowering”.
